PMC9416004, “A Versatile Class of 1,4,4-Trisubstituted Piperidines Block Coronavirus Replication In Vitro” (Pharmaceuticals, 2022)
Where two headings read alike, the source gives them in different places.

Assays:
HCoV-229E [1] = test: Cytopathic effect (CPE) reduction assay with HCoV-229E in HEL cells; assay type: cell-based, human coronavirus 229E; conditions: for EC50: Human coronavirus 229E, 120 h; for Selectivity Index MTS: ratio of CC50 to EC50-MTS; for Selectivity Index MTS / Selectivity Index Microscopy: only values of 10 or higher shown; for Selectivity Index Microscopy: ratio of MCC to EC50-microscopy
[2] = target: SARS-CoV-2 nsp5 main protease (M^pro) (Severe acute respiratory syndrome coronavirus 2, UniProt P0DTD1); test: FRET-based M^pro enzymatic assay; assay type: biochemical; conditions: for IC50 on SARS-CoV-2 M^pro enzyme activity: 80 nM nsp5, 5 μM Dabcyl-KTSAVLQSGFRKM-Edans-NH2 substrate, mean ± SEM (N = 3)
Procedure: Serial dilutions of the compounds were incubated with purified nsp5 protein in the presence of substrate (Dabcyl-KTSAVLQ↓SGFRKM-Edans-NH2), and peptide cleavage was followed by an increase in fluorescence. The compounds’ IC50 values were determined by Hill curve fitting. Values are the mean ± SEM (N = 3).
After transforming the pGEX-6P-1 plasmid in E. coli BL21 DE3 gold, nsp5 production was stimulated by overnight induction with 250 μM IPTG at a temperature of 17 °C. After centrifugation, the bacteria were resuspended in buffer consisting of: 50 mM Tris pH 8; 300 mM NaCl; 5 mM MgSO4; 1 mM PMSF; 10 μg/mL DNAse I; 0.25 mg/mL Lysozyme; 0.1%Triton X-100; and 10% glycerol. The cells were lysed by three cycles of sonication and centrifugation. The nsp5 protein was bound to Co-NTA agarose beads and eluted in lysis buffer containing 250 mM of imidazole. Next, the protein product was concentrated on a Vivaspin 20 centrifugal concentrator (10 kDa cut-off; GE Healthcare) and imidazole was removed by dialysis. Finally, the purified nsp5 was stored at −80 °C with 50% glycerol.
M^pro enzymatic assay. The fluorescence resonance energy transfer (FRET)-based protease assay was performed in black 384-well plates. Briefly, serial dilutions of the compounds were incubated with 80 nM nsp5 protein and 5 μM peptide substrate (Dabcyl-KTSAVLQ↓SGFRKM-Edans-NH2; Genscript) in buffer consisting of: 20 mM HEPES pH 6.5; 120 mM NaCl; 0.4 mM EDTA; 4 mM dithiothreitol; and 10% glycerol. The final DMSO content was 0.5%. Cleavage of the substrate was monitored for 40 min by measuring the increasing fluorescence in a Tecan Safire 2 plate reader (wavelength settings: excitation at 335 nm and emission at 493 nm). For each condition, enzyme activity was derived from the slope for the linear part of the curve and expressed relative to the activity in the condition receiving no compound. To determine the IC50 values, GraphPad Prism software was used to plot the % of enzyme activity against compound concentration and then fit the curves according to the equation Y = 100/(1 + (X/IC50)^HillSlope).

[3] = tested on: human embryonic lung (HEL) fibroblast cells; conditions: mock-infected HEL cells; microscopically visible alterations in cell morphology
in vitro [4] = conditions: human
SARS-CoV-2 = test: RT-qPCR-based SARS-CoV-2 viral load reduction assay in A549-AT cells; assay type: cell-based; conditions: for Antiviral activity EC99: 100-fold reduction in viral RNA copies in supernatant at day 3 p.i.; for EC90: Severe acute respiratory syndrome coronavirus 2, 72 h, 10-fold reduction in viral RNA copies in supernatant at day 3 p.i., read-out: Antiviral activity EC90
HCoV-229E [5] = test: One-cycle time-of-compound addition (TOA) assay with HCoV-229E in HEL cells; assay type: cell-based, human coronavirus 229E
in vitro [6] = conditions: human; remark: listed apart in the source
[7] = target: SARS-CoV-2 nsp14 N7-MTase (Severe acute respiratory syndrome coronavirus 2, UniProt P0DTD1); test: Radioactive filter-binding MTase assay, nsp14; assay type: biochemical; conditions: compound concentration of 200 µM
[8] = target: SARS-CoV-2 nsp10/nsp16 2'O-MTase (Severe acute respiratory syndrome coronavirus 2, UniProt P0DTD1); test: Radioactive filter-binding MTase assay, nsp10/nsp16; assay type: biochemical; conditions: compound concentration of 200 µM
[9] = HCoV-229E-infected HEL cells, protection against virus-induced CPE by MTS cell viability assay, five days at 35 °C, read-out: Antiviral EC50 MTS
[10] = HCoV-229E-infected HEL cells, protection against virus-induced CPE by microscopic scoring, five days at 35 °C, read-out: Antiviral EC50 Microscopy
[11] = compound added at 8 h p.i., HEL cells lysed at 16 h p.i., 33 15 µM, GC376 25 µM, GS-441524 20 µM, K22 15 µM

| SMILES | EC50 (HCoV-229E [1]; [9]) [µM] | EC50 (HCoV-229E [1]; [10]) [µM] | IC50 [2] [µM] | Cytotoxicity MCC (minimal cytotoxic concentration) [3] [µM] | CC50 (in vitro [4]) [µM] | Selectivity Index MTS (HCoV-229E [1]) | Selectivity Index Microscopy (HCoV-229E [1]) | Antiviral activity EC99 (SARS-CoV-2) [µM] | EC90 (SARS-CoV-2) [µM] | other results |
| --- | --- | --- | --- | --- | --- | --- | --- | --- | --- | --- |
| COC(=O)C[C@H](NC(=O)OC(C)(C)C)C(=O)N(Cc1ccccc1)C1(C(=O)NCc2ccccc2)CCN(Cc2ccccc2)CC1 [Compound 1] | > 100 | > 100 | 161 ± 35 | >100 | > 100 | – | – | – | – | Antiviral EC50 MTS (HCoV-229E [1]; HCoV-229E-infected HEL cells, protection against virus-induced CPE by MTS cell viability assay, five days at 35 °C): no activity; IC50 on SARS-CoV-2 M^pro enzyme activity [2]: only marginal activity |
| COC(=O)C[C@H](NC(=O)OCc1ccccc1)C(=O)N(Cc1ccccc1)C1(C(=O)NCc2ccccc2)CCN(Cc2ccccc2)CC1 [Compound 33] | 3.3 ± 0.4 | 3 ± 0.1 | 64 ± 8 | >100 | > 100 | >30 | >33 | 14 | 9.3 | inhibition of viral RNA synthesis (HCoV-229E [5]; [11]): losing some activity; CC50 (in vitro [6]): 90 µM |
| COC(=O)C[C@H](NC(=O)OCc1ccccc1)C(=O)N(Cc1ccc(F)cc1)C1(C(=O)NCc2ccccc2)CCN(Cc2ccccc2)CC1 [Compound 34] | 3.4 ± 0.4 | 3.1 ± 0.1 | 38 ± 5 | 81 | – | 22 | 26 | 13 | 8 | inhibition at 200 µM [7]: 80% |
| CC(C)(C)OC(=O)N[C@@H](Cc1ccccc1)C(=O)N(Cc1ccc(F)cc1)C1(C(=O)NCc2ccccc2)CCN(Cc2ccccc2)CC1 [Compound 45] | 1.1 ± 0.2 | 0.85 ± 0.07 | 15 ± 2 | 50 | 4.4 ± 0.8 | – | – | – | – | – |
| CC(C)(C)OC(=O)N[C@@H](Cc1ccccc1)C(=O)N(Cc1ccccc1)C1(C(=O)NCc2ccccc2)CCN(Cc2ccccc2)CC1 [Compound 46] | 4.5 ± 0.2 | 7.4 ± 1.3 | 22 ± 2 | ≥100 | 75 | 17 | ≥14 | – | – | – |
| Cc1ccc(CC(NC(=O)OC(C)(C)C)C(=O)N(Cc2ccccc2)C2(C(=O)NCc3ccccc3)CCN(Cc3ccccc3)CC2)cc1 (stereo not drawn) [Compound 52, Tert-butyl(1-(benzyl(1-benzyl-4-benzylcarbamoylpiperidin-4-yl)amino)-1-oxo-3-(p-tolyl)propan-2-yl)carbamate] | 4.7 ± 0.6 | 6.6 ± 1.8 | 14 ± 4 | ≥100 | – | >21 | ≥15 | 3.9 | 1.7 | – |
| COC(=O)C[C@H](NC(=O)OCc1ccccc1)C(=O)N(Cc1ccc(C)cc1)C1(C(=O)NCc2ccccc2)CCN(CCc2ccccc2)CC1 [Compound 59, Methyl(S)-4-((4-benzylcarbamoyl-1-phenethylpiperidin-4-yl)(4-methylbenzyl)amino)-3-benzyloxycarbonylamino-4-oxobutanoate] | 5.1 ± 1 | 8.8 ± 0.7 | – | 16 | 15 ± 5 | – | – | – | – | – |
| CC(C)(C)OC(=O)NC(Cc1ccccc1)C(=O)N(Cc1ccccc1)C1(C(=O)NCc2ccccc2)CCN(Cc2ccc(F)cc2)CC1 (stereo not drawn) [Compound 60, Tert-butyl(1-(benzyl(4-benzylcarbamoyl-1-(4-fluorobenzyl)piperidin-4-yl)amino)-1-oxo-3-phenylpropan-2-yl)carbamate] | 4 ± 0.1 | 4.5 ± 0.2 | 68 ± 21 | ≥100 | – | >25 | – | 5.2 | 2.2 | inhibition at 200 µM [8]: 80% |
| CC(C)(C)OC(=O)NC(Cc1ccccc1)C(=O)N(Cc1ccccc1)C1(C(=O)NCc2ccccc2)CCN(Cc2ccc(Cl)cc2)CC1 (stereo not drawn) [Compound 61, Tert-butyl(1-(benzyl(4-benzylcarbamoyl-1-(4-chlorobenzyl)piperidin-4-yl)amino)-1-oxo-3-phenylpropan-2-yl)carbamate] | 30 ± 7 | 36 ± 9 | – | >100 | > 100 | – | – | – | – | – |
| COc1ccc(CN2CCC(C(=O)NCc3ccccc3)(N(Cc3ccccc3)C(=O)C(Cc3ccccc3)NC(=O)OC(C)(C)C)CC2)cc1 (stereo not drawn) [Compound 62, Tert-butyl(1-(benzyl(4-benzylcarbamoyl-1-(4-methoxybenzyl)piperidin-4-yl)amino)-1-oxo-3-phenylpropan-2-yl)carbamate] | 4.3 ± 0.4 | 5.9 ± 1.8 | – | 40 | 28 | – | – | – | – | – |
| CC(C)(C)OC(=O)NC(Cc1ccccc1)C(=O)N(Cc1ccccc1)C1(C(=O)NCc2ccccc2)CCN(Cc2ccc([N+](=O)[O-])cc2)CC1 (stereo not drawn) [Compound 63, Tert-butyl(1-(benzyl(4-benzylcarbamoyl-1-(4-nitrobenzyl)piperidin-4-yl)amino)-1-oxo-3-phenylpropan-2-yl)carbamate] | 77 ± 9 | 82 ± 15 | 196 ± 39 | ≥100 | > 100 | – | – | – | – | IC50 on SARS-CoV-2 M^pro enzyme activity [2]: only marginal activity |
| CCOC(=O)[C@H]1O[C@@H]1C(=O)N[C@@H](CC(C)C)C(=O)NCCC(C)C [Compound E64d] | – | – | – | – | – | – | – | – | – | inhibition of viral RNA synthesis (HCoV-229E [5]; compound addition delayed until 4 h p.i., HEL cells lysed at 16 h p.i., E64d 15 µM, bafilomycin 0.00625 µM): 46% |
| O=C(N/C(=C\c1ccccc1)C(=O)N1CCC(O)(c2ccc(Br)cc2)CC1)c1ccccc1 [Compound K22, (Z)-N-[3-[4-(4-bromophenyl)-4-hydroxypiperidin-1-yl]-3-oxo-1-phenylprop-1-en-2-yl]benzamide, reference compound] | 3.6 ± 0.6 | 2.6 ± 0.5 | – | 50 | 28 ± 3 | – | 19 | – | – | inhibition of viral RNA synthesis (HCoV-229E [5]; [11]): 100% |
| CC(C)C[C@H](NC(=O)OCc1ccccc1)C(=O)N[C@@H](C[C@@H]1CCNC1=O)C(O)S(=O)(=O)[O-].[Na+] (stereo partly drawn) [GC376] | – | – | – | – | – | – | – | – | – | inhibition of viral RNA synthesis (HCoV-229E [5]; […], 33 15 µM, GC376 25 µM, GS-441524 20 µM, K22 15 µM): ~ 90% |
| N#C[C@@]1(c2ccc3c(N)ncnn23)O[C@H](CO)[C@@H](O)[C@H]1O [GS-441524, reference compound] | 2.3 ± 0.2 | 3.5 | – | >100 | – | >43 | >29 | 4.6 | 3.2 | inhibition of viral RNA synthesis (HCoV-229E [5]; [11]): ~ 90% |
| CO/C1=C\C(C)=C\[C@@H](C)[C@@H](O)[C@@H](C)C/C(C)=C/C=C/[C@H](OC)[C@@H]([C@@H](C)[C@@H](O)[C@H](C)[C@@]2(O)C[C@@H](O)[C@H](C)[C@@H](C(C)C)O2)OC1=O [bafilomycin] | – | – | – | – | – | – | – | – | – | inhibition of viral RNA synthesis (HCoV-229E [5]): 9% |
